Measured values from patent US20240390251A1, “SKIN CARE COMPOSITION AND USE THEREOF, AND SKIN CARE COMPOSITION RAW MATERIAL” (YAMASA CORPORATION, priority 2021, published 2024).

Legend:
[1] = tested on: inflammatory cytokine production; experiment: Anti-inflammatory evaluation of purine nucleotides in a similar experimental system; type: cell-based, human; conditions: similar experimental system to Example 1
Procedure: (§1) Normal human keratinocytes (NHEK; manufactured by Kurabo Industries, Ltd.) were seeded in a 96-well plate at a density of 2.5×10^4 cells/well and cultured at 37° C. for 24 hours. The medium was replaced with 100 μL of sample-containing medium (HuMedia-KG2; manufactured by Kurabo Industries, Ltd.) and cultured for 24 hours. After removing the sample-containing medium, the plate was washed with 100 μL of Hanks balanced salt solution (HBSS (−)) and irradiated with 20 mJ/cm^2 using a UVB lamp (TL20W/12RS; manufactured by PHILIPS). After washing with HBSS (−), the medium was replaced with 100 μL of fresh medium and cultured for 24 hours. After culturing, the culture supernatant was collected. The sample solutions used were 0.8 (mg/mL) of UMP,2Na 0.4, 0.8 (mg/mL) of CMP,2Na 0.4, 0.8 (mg/mL) of U:C=1:1 (mass ratio 1:1 mixture of UMP,2Na and CMP,2Na) 0.4, 0.8 (mg/mL) of U:C=4:1 (mass ratio 4:1 mixture of UMP,2Na and CMP,2Na) 0.4, and 0.8 (mg/mL) of U:C=1:4 (mass ratio 1:4 mixture of UMP,2Na and CMP,2Na) 0.4.
The culture supernatant of human keratinocytes was collected, and amounts of IL-1α, IL-6, and IL-8 were quantified by ELISA.

IL-1α [2] = experiment: Anti-inflammatory evaluation using UVB-irradiated three-dimensional cultured human epidermis, IL-1α by ELISA; type: cell-based; conditions: UVB 600 mJ/cm^2, tested 0.125-1.0 w/v %, FIG. 4
Procedure: (§2) To reproduce the phenomenon that occurs in actual epidermis, three-dimensional cultured human epidermis was used to evaluate the suppression effect of cytidylic acid on inflammatory cytokines induced by UV irradiation. In addition, to verify the relationship between the amount of cytidylic acid and the suppression effect on inflammatory cytokine production, the effects of varying the amount of cytidylic acid were evaluated.
(§3) Three-dimensional cultured human epidermis (LabCyte EPI MODEL 24; manufactured by J TEC) was set in a 24-well plate to which 500 μL of the attached assay medium was added, and acclimated overnight at 37° C. 50 μL of sample-containing PBS (−) was applied from the stratum corneum side and cultured for 24 hours. After removing the sample-containing PBS (−), the plate was washed with PBS (−) and irradiated with 600 mJ/cm^2 using a UVB lamp (TL20W/12RS; manufactured by PHILIPS). The medium was replaced with a fresh medium, 50 μL of sample-containing PBS (−) was newly applied from the stratum corneum side, and further cultured for 48 hours. After culturing, the culture supernatant was collected. The concentrations of cytidylic acid in the respective samples were 0, 0.125, 0.25, 0.5, and 1.0 (w/v %), respectively. Each inflammatory cytokine contained in the supernatant was quantified by ELISA.

IL-6 [3] = experiment: Anti-inflammatory evaluation using UVB-irradiated three-dimensional cultured human epidermis, IL-6 by ELISA; type: cell-based; conditions: UVB 600 mJ/cm^2, tested 0.125-1.0 w/v %, FIG. 5
Procedure: as §2, §3

IL-8 [4] = experiment: Anti-inflammatory evaluation using UVB-irradiated three-dimensional cultured human epidermis, IL-8 by ELISA; type: cell-based; conditions: UVB 600 mJ/cm^2, tested 0.125-1.0 w/v %, FIG. 6
Procedure: as §2, §3

IL-6 [5] = experiment: Anti-inflammatory evaluation using UVB-irradiated normal human keratinocytes, IL-6 by ELISA; type: cell-based; conditions: NHEK, FIG. 2; for concentration dependence of the inhibitory effect on IL-6 / amount of IL-6 produced: UVB 20 mJ/cm^2, sample 0.4 and 0.8 mg/mL; for amount of IL-6 produced: culture supernatant
Procedure: as §1, with “The effects of using various nucleotides on photoaging of the skin were evaluated using normal human keratinocytes. The effects of various nucleotides on inflammatory cytokines induced by UV irradiation of normal human keratinocytes were evaluated. Known inflammatory cytokines IL-1α, IL-6, and IL-8 were used as the inflammatory cytokines to be evaluated. Normal” for “Normal”, “(-))” for “(−))”, “(T[…]/12RS;” for “(TL20W/12RS;”, “(-),” for “(−),”, “0.4. The culture supernatant of human keratinocytes was collected, and amounts of IL-1α, IL-6, and IL-8 were quantified by ELISA.” for “0.4.”

IL-1α [6] = experiment: Anti-inflammatory evaluation using UVB-irradiated normal human keratinocytes, IL-1α by ELISA; type: cell-based; conditions: NHEK, UVB 20 mJ/cm^2, sample 0.4 and 0.8 mg/mL, FIG. 1; for amount of IL-1α produced: culture supernatant
Procedure: as §1, with “The effects of using various nucleotides on photoaging of the skin were evaluated using normal human keratinocytes. The effects of various nucleotides on inflammatory cytokines induced by UV irradiation of normal human keratinocytes were evaluated. Known inflammatory cytokines IL-1α, IL-6, and IL-8 were used as the inflammatory cytokines to be evaluated. Normal” for “Normal”, “(-))” for “(−))”, “(T[…]/12RS;” for “(TL20W/12RS;”, “(-),” for “(−),”, “0.4. The culture supernatant of human keratinocytes was collected, and amounts of IL-1α, IL-6, and IL-8 were quantified by ELISA.” for “0.4.”

IL-8 [7] = experiment: Anti-inflammatory evaluation using UVB-irradiated normal human keratinocytes, IL-8 by ELISA; type: cell-based; conditions: NHEK, FIG. 3; for concentration dependence of the inhibitory effect on IL-8 / amount of IL-8 produced: UVB 20 mJ/cm^2, sample 0.4 and 0.8 mg/mL; for amount of IL-8 produced: culture supernatant
Procedure: as §1, with “The effects of using various nucleotides on photoaging of the skin were evaluated using normal human keratinocytes. The effects of various nucleotides on inflammatory cytokines induced by UV irradiation of normal human keratinocytes were evaluated. Known inflammatory cytokines IL-1α, IL-6, and IL-8 were used as the inflammatory cytokines to be evaluated. Normal” for “Normal”, “(-))” for “(−))”, “(T[…]/12RS;” for “(TL20W/12RS;”, “(-),” for “(−),”, “0.4. The culture supernatant of human keratinocytes was collected, and amounts of IL-1α, IL-6, and IL-8 were quantified by ELISA.” for “0.4.”

[8] = UVB 20 mJ/cm^2, significant difference between uridylic acid and cytidylic acid

Compound	effect of inhibiting inflammatory cytokine production, compared with cytidylic acid and uridylic acid [1]	concentration at which a significant IL-1α production inhibitory effect was observed (IL-1α [2]) [%]	concentration at which a significant IL-6 production inhibitory effect was observed (IL-6 [3]) [%]	concentration at which a significant IL-8 production inhibitory effect was observed (IL-8 [4]) [%]	concentration dependence of the inhibitory effect on IL-6 (IL-6 [5])	amount of IL-6 produced (IL-6 [5])	effect of inhibiting IL-6 production, compared with uridylic acid (IL-6 [5]; [8])	concentration dependence of the inhibitory effect on IL-1α (IL-1α [6])	amount of IL-1α produced (IL-1α [6])	concentration dependence of the inhibitory effect on IL-8 (IL-8 [7])	amount of IL-8 produced (IL-8 [7])	effect of inhibiting IL-8 production, compared with uridylic acid (IL-8 [7]; [8])
Nc1ncnc2c1ncn2[C@@H]1O[C@H](COP(=O)(O)O)[C@@H](O)[C@H]1O [adenylic acid]	only a lower effect of inhibiting inflammatory cytokine production than cytidylic acid and uridylic acid											
Nc1ccn([C@@H]2O[C@H](COP(=O)(O)O)[C@@H](O)[C@H]2O)c(=O)n1 [cytidylic acid]		≥ 0.25	≥ 0.125	≥ 0.125	increased the inhibitory effect in a concentration-dependent manner	suppressed the amount of IL-6 produced	particularly remarkable effect of inhibiting IL-6 production	increased the inhibitory effect in a concentration-dependent manner	suppressed the amount of IL-1α produced	increased the inhibitory effect in a concentration-dependent manner	suppressed the amount of IL-8 produced	particularly remarkable effect of inhibiting IL-8 production
Nc1nc2c(ncn2[C@@H]2O[C@H](COP(=O)(O)O)[C@@H](O)[C@H]2O)c(=O)[nH]1 [guanylic acid]	only a lower effect of inhibiting inflammatory cytokine production than cytidylic acid and uridylic acid											
O=c1ccn([C@@H]2O[C@H](COP(=O)(O)O)[C@@H](O)[C@H]2O)c(=O)[nH]1 [uridylic acid]					increased the inhibitory effect in a concentration-dependent manner	suppressed the amount of IL-6 produced		increased the inhibitory effect in a concentration-dependent manner	suppressed the amount of IL-1α produced	increased the inhibitory effect in a concentration-dependent manner	suppressed the amount of IL-8 produced	
